Measured values from patent US20140228299A1, “PROPHYLACTIC AND THERAPEUTIC AGENT FOR NEUROLOGICAL DISEASES USING LIPOPROTEINS AND PROPHYLACTIC AND THERAPEUTIC METHOD FOR NEUROLOGICAL DISEASES” (National University Corporation Tokyo Medical and Dental …, priority 2011, published 2014).

How the values were obtained:
[1] = system: α2-macroglobulin released from glia cells; assay: α2-macroglobulin released from primary cultured glia cells (immunoblotting of culture supernatant); assay type: cell-based; conditions: 100 or 1,000 ng/mL; culture supernatant after 24 hours
Method: This example was to examine the amount of α2-macroglobulin released from the glia cells. To a culture mixture of the glia cells obtained by the primary culture, human lipoprotein containing apoE (100 or 1,000 ng/mL) was added, followed by collection of a culture supernatant after 24 hours. After the resulting supernatant was subjected to SDS-PAGE, it was detected by the immunoblotting using anti-α2-macroglobulin antibody. As a result, a decrease in the amount of α2-macroglobulin released from the glia cells was observed by the addition of the human lipoprotein containing apoE (FIG. 18).

[2] = system: retinal ganglion cells of GLAST knockout mouse; assay: Intravitreal administration to GLAST knockout mouse (normal-pressure glaucoma model), counting of retinal ganglion cells; assay type: in vivo
Method: This example is an experiment to investigate whether the reconstituted lipoprotein containing apolipoprotein E3 (LP) inhibits apoptosis of the […] of a GLAST knockout mouse as a normal-pressure glaucoma model animal. […] The eyeball was removed at the time of six weeks, followed by fixing with paraffin, staining with hematoxylin-eosin, and counting the retinal glia cells on the retina.
Three-week-old GLAST+/− or GLAST−/− mice were anesthetized by intraperitoneal injection of 50 mg/kg of pentobarbital sodium. […]
The eyeball of a six-week-old mouse was removed and fixed overnight at 4° C. using Super Fix (KY-500, Kurabo. Osaka), followed by removing the cornea and the crystalline lens under a stereoscopic microscope. […] Five sections were selected from each of the continuous sections and the number of the cells within the glia cell layer was counted in a range extending from one end of the retinal section to the other end through the optic nerve. More than 2,000 cells were counted on 10 sections of each retina.

retinal ganglion cells = assay: Glutamic acid-induced apoptosis of cultured retinal ganglion cells (Hoechst 33342 or calcein AM/propidium iodide staining); assay type: cell-based, rat
Method: The primary culture of the retinal glia cells was carried out using two-day-old Sprague Dawley (SD) baby rats in accordance with a somewhat modified method (Hayashi et al., J. Biol. Chem. 2009) of the method of Barres et al. (Barres, et al., 1988). The isolated retinal glia cells (RGC) were suspended in a base culture medium of a RGC medium (1 mM glutamine, 5 μg/mL insulin, 60 μg/mL N-acetylcysteine, 62 ng/mL progesterone, 16 μg/mL putrescine, 40 ng/mL sodium selenite, 0.1 mg/mL bovine serum albumin, 40 ng/mL triiodothyronine, 0.1 mg/mL transferrin, 1 mM sodium pyruvate, 2% B27 supplement (Invitrogen, Carlsbad, Calif.), 10 μM forskolin (Sigma, St. Louis, Mo.), 50 ng/mL brain-derived neurotrophic factor (BDNF; PeproTech, Rocky Hill, N.J.), 50 ng/mL ciliary neurotrophic factor (CNTF; Peprotech), and 50 ng/mL basic fibroblast growth factor (bFGF; PeproTech). A 96-well plate was coated with poly-d-lysine (Sigma) and laminin (Sigma), and RGC was placed at the rate of 5,000 cells per well for the 96-well place, 5,000 cells per each culture insert for microdish, or 15,000 cells per dish for compartmentalized culture, followed by incubating for at least 10 days before experimentation.
In the figure, Cant represents a non-treated group, Glu represents a group with 300 μM glutamic acid added, and +glial LP represents a group with 300 μM glutamate+glia-cell-derived lipoprotein containing apolipoprotein E added. Glial LP was added in the concentration of 1 μg cholesterol/mL. After treatment, the rate of apoptosis-like cells was computed by observing the aggregation of the nuclei (a: nuclear staining with Hoechst 33342) or the sustained impermeability of esterase activity/membrane (b: calcein AM/Propidium Iodide staining) in 24 hours.
The induction and detection of apoptosis in RGC were performed in the manner as described below. Specifically, RGC was washed twice with Hanks' balanced salt solution (HBSS) containing 2.4 mM CaCl2 and 20 mM HEPES, but not containing magnesium, and incubated at 37° C. for 2 hours in a medium prepared by adding 300 μM glutamate and 10 μM glycine to the above Hanks' balanced salt solution. After treatment with glutamate, RGC was incubated at 37° C. for 22 hours in a RGC culture medium containing no forskolin, BDNF, CNTF and bFGF. In order to detect apoptosis, RGC was stained with 1 μg/mL of Hoechst 33342 (346-07951, Dojindo, Kumamoto, Japan) or 1 μg/mL of calcein-AM/propidium iodide (341-07381, Dojindo). The fluorescence images were observed by Olympus IX71 microscope. The fragmented or aggregated nuclei stained with the above Hoechst reagent were counted as apoptotic nuclei, and round and smooth nuclei were counted as sound nuclei. As the sound nuclei were not stained with propidium iodide, the nuclei stained with propidium iodide were counted as apoptotic nuclei. More than 300 nuclei were counted in each group.
The apoptosis of RGC was measured in the following manner. The RGC subjected to the primary incubated was incubated two times at 37° C. for 15 minutes using Hanks' Balanced Salt Solution (HBSS) containing 2.4 mM CaCl2 and 20 mM 4-(2-hydroxyethyl)-pyperazine-1-ethanesulfonic acid (HEPES) but containing no magnesium and then washed. […], the magnesium was removed from the washing solution. Thereafter, the RGC was treated or not treated with […] (a co-activating agent for the NMDA receptor) in HBSS containing 2.4 mM CaCl2 and 20 mM HEPES (without magnesium) and then incubated at 37° C. for 2 hours. A control (HBSS containing 2.4 mM CaCl2 and 20 mM HEPES (without containing magnesium)) or the RGC treated or not treated with glutamic acid was incubated at 37° C. for 22 hours in the same medium as used for the RGC (without forskolin, brain-derived neurotrophic factor, ciliary neurotrophic factor and basic fibroblast growth factor). […]

Q: Which results are given for “E-LP: reconstituted lipoprotein of 1-palmitoyl-2-oleyl-glycerophosphocoline, cholesterol and recombinant human apolipoprotein E, molar ratio 100:10:1 or 100:0:1”?
A: amount of α2-macroglobulin released from the glia cells [1]: decrease; RGC existence in Glast+/− and Glast−/− mice ([2]; 1 μl of 1.5 μg protein/mL E-LP into vitreous body, three-week-old injected, six-week-old examined): recovery; effect on the inhibitory effects of α2-macroglobulin on neuroprotection (retinal ganglion cells; 100 nM a2M, E-LP 100-3,000 ng protein/mL, Glu, Hoechst 24 hours): inhibited; protection of RGC from Glu-induced neurotoxicity, dose dependence (retinal ganglion cells; RGC incubated with E-LP 15 minutes before Glu): protected the RGC in a dose-dependent manner

Q: “LP: reconstituted lipoprotein of POPC, cholesterol and recombinant human apolipoprotein E3” was tested. Which “apoptosis of the retinal cells of GLAST knockout mouse” value ([2]; LP (100 ng protein/mL) into vitreous body at three weeks, eyeball removed at six weeks) did it give?
A: inhibited apoptosis

Q: And the “difference in neuroprotective effects between apoE isoforms in RGC treated with glutamic acid” value (retinal ganglion cells; 100 ng protein/mL, 15 minutes before Glu)?
A: no difference

Q: And the “apoptosis of retinal cells induced by glutamic acid (apoptosis-like cells)” value (retinal ganglion cells; added at 100 ng protein/mL, Hoechst 33342)?
A: inhibited the apoptosis
